Counter-ions that a name gives are not always drawn. Like-named read-outs stand apart in the source and are kept apart here.
Legend:
[1] = system: THP-1 cells; assay: Lab-on-a-chip membrane potential assay, uptake of DiBAC4(3) and Syto 62 by THP-1 cells; type: cell-based
Source text: The microfluidic technology used in the LabChip® system for this example utilizes microchannels etched into quartz chips coupled with a sampling micropipette that can access samples from microtitre plates. The LabChip® system accesses liquid samples sequentially from a microplate, mixes the samples with cells flowing through a microchannel and reads out cellular responses using fluorescence detection. The system was applied to the measurement of changes in transmembrane potential. […].
As show in FIG. 8, panel A and panel B, the lab-on-a-chip system which was used consisted of quartz chip 801 containing microchannels 803 and 805 connected to Sipper™ capillary 807, robot 809 to move microplate 811, light source 813, optics 815 and fluorescence reader 817, vacuum pump 816, and a computer to control system functions and record data. Light from light source 813 (e.g., mercury arc lamp (470 nm) or an argon ion laser) was focused onto microchip 801 with through optics 815 comprising an objective (10×, 0.3 NA air). Fluorescence was collected with the objective, split into two channels (525 nm and 700 nm) and detected with fluorescence reader 817 which comprises photodiodes. Fluorescence readings were acquired at 20–90 Hz. The three axis robot 809 was used to position microplate 811 so that chip 801 could sample microplate 811, whether in a 96 or 384 well configuration.
A schematic of chip 801 with 90×20 μm channels is shown in FIG. 8, panel B. Flowing cells from cell well 819 were mixed with samples introduced through the Sipper™ capillary 807 (20 μm ID). The flow rate in the detection channel was varied from 2 to 10 nl/s by varying the vacuum applied to waste well 821. Agonists or dyes were added from side well 823. The incubation time in detection channel 803 was varied between 10 and 75 seconds by varying the applied pressure and the location of detector elements (e.g., optics 815) relative to chip 801.
As shown in panel A, the potential sensitive fluorescence signal was derived not from the slow re-equilibration of dyes that were pre-loaded into cells but rather from the rate of uptake of charged, membrane-permeable dyes. Using both an anionic dye, DiBAC4(3), and a cationic dye, Syto 62, yielded a ratiometric measurement with increased sensitivity. Cells were mixed on chip with test samples and dyes stored on the chip. After a short incubation in the detection channel, the fluorescence of individual cells was detected.
As shown in panel B, peaks in green (DiBAC) and red (Syto 62) fluorescence corresponded to THP-1 cells mixed with either buffer, UTP or quinidine sulfate flowing past the detector following a 75 second dye incubation.
As shown in panels C and D, the rate of uptake of DiBAC4(3) (C) and Syto 62 (D) was determined from the average fluorescence peak height as a function of the incubation time for resting cells (∘), cells hyperpolarized with UTP (▪) and cells depolarized with quinidine sulfate (Δ). Compared to resting cells, the rate of increase of DiBAC4(3) peak heights was 48±11% (mean±se, n=5) higher for depolarized cells and 43±5% lower for hyperpolarized cells. Similarly, the rate of increase of the Syto 62 peaks was 7±2% lower for depolarized cells and 37±3% higher for hyperpolarized cells.
As shown in panel A, a calibration curve relating the ratio of DiBAC4(3)/Syto 62 fluorescence (n=20 to 130 cells) to membrane potential was constructed by increasing the K+ conductance of the THP-1 cells and varying the extracellular K+ concentration. […]

[2] = system: THP-1 cells; assay: Transmembrane potential assay on Caliper 3B5 microfluidic processor, THP-1 cells; type: cell-based; conditions: 50 μM UTP in high sodium buffer, resting approximately −40 mV
Description: Changes in the cell transmembrane potential were detected in microfluidic processor by the mixing of cells and the dyes DiBAC4(3) and SYTO62. […] Dye uptake by THP-1 cells was measured on a Caliper® 3B5 microfluidic processor (FIG. 5). One of the long channels of the processor contained THP-1 cells (3×10^6 cells/ml) suspended in high sodium buffer as above, while the other long channel contained 400 nM DiBAC4(3) and 10 μM SYTO62 in high sodium buffer. Transmembrane potential was set to resting potential, hyperpolarization or depolarization by placing either high sodium, 50 μM UTP in high sodium or high potassium buffer in the short arm. Resting, hyperpolarized and depolarized potentials are estimated to be approximately −40, −100 and 0 mV respectively. The microfluidic processor was maintained at room temperature (˜23° C.). DiBAC4(3) and SYTO62 fluorescence was read after the cells had traveled approximately 90 seconds from the junction (ΔP˜1″H2O). Panel A depicts the average fluorescence ratio (DiBAC4(3)/SYTO62) for runs of ˜80 cells each. Error bars are standard error values. As shown in panel B, Histograms show the expected voltage dependent changes in the fluorescence intensities of individual cells as a function of transmembrane potential.

[3] = system: peripheral blood T lymphocytes; type: cell-based, human; conditions: for change in DiBAC4(3)/Syto 62 ratio (depolarization): resting T lymphocytes
Source text: Resting or mitogen activated peripheral blood T lymphocytes (90% CD3+) were flowed through the chip and mixed with ion channel modulators accessed through the Sipper™ capillary. Average DiBAC4(3)/Syto 62 ratios ±SE (n=2–6) are shown.
Thus, cell based assays of calcium flux and membrane potential were run in the lab-on-a-chip system. A novel approach for measurement of membrane potential was used to detect hyperpolarization and depolarization with high sensitivity. The microfluidic format reduced reagent, sample and cell consumption. As few as 50–200 cells and as little as 10 nl of sample were used per test. […]

Compound: C=C[C@H]1C[N@@]2CC[C@H]1C[C@@H]2[C@@H](O)c1ccnc2ccc(OC)cc12 [quinidine sulfate]
- change in the average DiBAC4(3)/Syto 62 ratio ([1]; average±SD, n=3): dose dependent depolarization
- rate of increase of the Syto 62 peaks, lower compared to resting cells ([1]; depolarized cells): 7±2%
- rate of increase of DiBAC4(3) peak heights, higher compared to resting cells ([1]; depolarized cells, mean±se, n=5): 48±11%

Compound: O=c1ccn([C@@H]2O[C@H](COP(=O)(O)OP(=O)(O)OP(=O)(O)O)[C@@H](O)[C@H]2O)c(=O)[nH]1 [UTP]
- rate of increase of DiBAC4(3) peak heights, lower compared to resting cells ([1]; hyperpolarized cells): 43±5%
- rate of increase of the Syto 62 peaks, higher compared to resting cells ([1]; hyperpolarized cells): 37±3%
- transmembrane potential (hyperpolarized), estimated [2]: ~−100 mV

Compound: margatoxin (TIINVKCTSPKQCLPPCKAQFGQSAGAKCMNGKCKCYPH; UniProt P40755 1-39, looked up)
- change in DiBAC4(3)/Syto 62 ratio (depolarization) ([3]; 36 μM, p<0.05): significant increase in DiBAC4(3)/Syto 62 ratio

Compound: C[C@H](CCC(=O)O)C[C@H](C)C[C@H](C)C(=O)/C=C(\O)[C@H](C)C[C@H](C)C/C=C/[C@@H](C)[C@@H](O)[C@@H](C)[C@@H](O)C[C@@H]1CC[C@@](C)([C@H]2CC[C@@](C)([C@@H](C)O)O2)O1 [ionomycin]
- DiBAC4(3)/Syto 62 ratio (hyperpolarization) ([3]; mitogen activated T lymphocytes in the presence of ionomycin, compared to resting T lymphocytes, p<0.05): lower ratio compared to resting T lymphocytes
- change in DiBAC4(3)/Syto 62 ratio (depolarization) ([3]; 15 μM): not

Compound: Clc1ccccc1C(c1ccccc1)(c1ccccc1)n1ccnc1 [clotrimazole]
- change in DiBAC4(3)/Syto 62 ratio ([3]; mitogen activated T lymphocytes in the presence of ionomycin, 30 μM, p<0.05): ratio increases significantly
- change in DiBAC4(3)/Syto 62 ratio (depolarization) ([3]; 30 μM): not
